The values below come from patent publication US20260226079A1, “A STRATEGY FOR THE SELECTIVE REMOVAL OF MRI CONTRAST AGENTS” (Portland State University, priority 2023, published 2026).

Marks after values point to notes of the source that are not given here.

Data set [1] is described as follows: Temperature-dependent 17O R2p transverse relaxation rate (67.8 MHz, 11.74 T) and fitting. It is filed as physicochemical. To be noted: for τM, water residence lifetime / AO/h / Δ HM: fitted; for τM, water residence lifetime: pH 7.0 (GdDO3A-N3-monoamide), pH 6.8 (GdDO3A-DBCO-monoamide); for AO/h / Δ HM: pH 7.0 (N3), pH 6.8 (DBCO). The method, then: FIG. 18 is a plot illustrating the GdDO3A-DBCO monoamide temperature-dependent R2p relaxation rate of ^17O measured at 67.8 MHz (11.74 T) pH 6.8, and a Gd^3+ concentration of 6.5 mM.
FIG. 20 is a plot illustrating the GdDO3A-azido monoamide temperature-dependent R2p relaxation rate of ^17O measured at 67.8 MHz (11.74 T) pH 7.0, and a Gd^3+ concentration of 8.5 mM.
(§1) Previous work by the inventors has shown that chelates functionalized with bulky aromatic groups have the propensity to self-associate in solution. […] The most common methods to determine the physico-chemical properties described by SBM theory are through fittings of experimental data obtained from the reduced ^17O transverse relaxation rate, R2p, as a function of temperature and relaxivity, ri, as a function of proton Larmor frequency i.e. nuclear magnetic resonance dispersion (NMRD) profiles.
Analysis of the reduced transverse relaxation rate constant of ^17O (R2p) as a function of temperature is the most common experimental technique to determine water residence lifetime, τM. The function typically resembles a bell curve where the inflection point temperature is an indicator of water exchange kinetics. The experiments were performed at a pH of 6.8 and a Gd^3+ concentration of 6.5 mM. Precipitation was observed below 295 K. The ^17O curve reached an inflection point at about 310 K, and the fitted value of τM was 545 ns, comparatively slow in the context of achieving high relaxivities but fast enough that exchange is in the fast exchange regime and rl is sensitive to changes in molecular tumbling, […].
Unsurprisingly, the shape is nearly identical to the DBCO-containing counterpart; both are monoamides and a similar water exchange rate would be expected. In this case, the water residence lifetime time constant (τM) was equivalent to the DBCO ligand at 545 ns.

Data set [2] is described as follows: 1H NMRD relaxivity profiles and parametric fitting (SBM / Lipari-Szabo). It is filed as physicochemical. Set-up: ^298D: unit not given here. As to conditions: for ^22r1 (298K), relaxivity: 20 MHz; for ^22r1 (298K), relaxivity / ER / Δ^2 / τRG, global rotational correlation time constant / τV: pH 7.0 (N3), pH 6.8 (DBCO); for EV / ^298D / a / q / r: fixed during fitting. As for the experimental part: FIG. 19 is a plot illustrating the GdDO3A-DBCO monoamide ^1H NMRD profiles at 283 (blue, top line), 298 (black, middle line) and 310 K (red, lower line), measured at pH 6.8, and a Gd^3+ concentration of 1.32 mM.
FIG. 21 is a plot illustrating the GdDO3A-azido monoamide ^1H NMRD profiles at 283 (blue, top line), 298 (black, middle line) and 310 K (red, lower line), measured at pH 7.0.
as §1
The NMRD profiles of GBCAs are used to characterize several important physico-chemical parameters described by SBM theory. The most influential parameter which affects the shape of an NMRD curve is the rotational correlation time constant (τR) of the complex. Macromolecular species which tumble slowly impart a positive impact on relaxivity at all fields, but particularly at high fields presented as a characteristic “hump” in the 10-60 MHz region, distinct from quickly tumbling chelates in which relaxivity continues to decrease with increasing field strength. The molecular weight of the GdDO3A-DBCO monoamide would not be considered a large macromolecular structure; any indication of a slowly tumbling complex would be indicative of an aggregate species which we hypothesized as the self-associating chelate. As shown below in FIG. 19, relaxivity is quite high in low field regions where electronic spin relaxation contributes, followed by a characteristic dispersion around 1 MHz when the contribution drops off. There is a “hump” around 20 MHz which is indicative of a slowly tumbling species, consistent with a self-associating chelate. This macromolecular structure is the source of a rather high relaxivity of 7.1 mM^−1s^−1 (20 MHz, pH 6.8, 298 K) in comparison to most clinical agents which remain in the 4 mM^−1 s^−1-5 mM^−1s^−1 range.
The global and local rotational correlation time constants were 375 ps and 107 ps, respectively. […] This further corroborated the presence of a self-association which led to a decrease in the efficiency observed in selective interception trials.
The dispersion at 1-10 MHz corresponded to a typical drop-off of the electronic spin relaxation contribution, followed by continued decrease in relaxivity with increasing field strength. There was no evidence of a slowly tumbling structure which was reflected in a standard parametric fitting procedure with one discrete rotational contribution.

A short description of data set [3]: SPAAC selective interception of GdDO3A-azido monoamide chelate on DBCO-PS beads, Gd by ICP-MS. To be noted: pH 7, 37° C. As for the experimental part: The GdDO3A-azido monoamide chelate and DBCO-PS beads shown in FIG. 15 were utilized in a similar experiment described previously. Due to the expensive DBCO starting material, the beads were generated on small scales. Accordingly, the scales of the experiments were reduced to 50 mg bead starting material and 0.5 equivalents of GBCA consistent with the loading capacity determined for each batch of DBCO-PS. All other conditions remained constant (1 mL reaction volume, 37° C., 1,000 rpm mixing at pH 7). Samples were prepared for ICP-MS analysis using the same method as previously described with fewer dilutions. The experiments were run with variable reaction times, matrix, and percentage DMSO.

The conditions of data set [4]: 20 MHz and 298 K, comparison value; cited from earlier work.
A short description of data set [5]: SPAAC selective interception of GdDO3A-DBCO monoamide chelate on azide terminated PS beads, Gd in supernatant by ICP-MS. To be noted: for % Gd Remaining: 50° C., 1,000 rpm, 24 hours. The method, then: To address potential stability issues associated with the GdTTHA-Alkyne and azide-PS beads system, tri-acetate mono-amide chelate systems were tested, that may experience fewer experimental difficulties. The initial SPAAC reactions were carried out with GdDO3A-DBCO monoamide chelate and azide terminated bead (FIG. 13). The Gd^3+ concentration was temporally monitored in the supernatant to gain a sense of reaction kinetics and optimal reaction times. To avoid mechanical stirring, a temperature-controlled thermomixer was used which mixed through agitation and was capable of batch testing. And the reaction was analyzed by ICP-MS.
All experiments were performed on a 100 mg bead scale with 0.5 equivalents of GdDO3A-DBCO monoamide chelate in water (1 mL) agitated at 1,000 rpm and 50° C. […] were selected: 3 minutes, 3 hours, 6 hours, 9 hours and 24 hours. The reactions were stopped at their respective time point, the sample was centrifuged and the supernatant was decanted and filtered. The beads were washed and centrifuged three times before the filtered supernatant was freeze dried and digested in HNO3 for ICP-MS analysis.
The effect of pH at relevant pH ranges of urine (~4.5-8) on the efficiency of Gd removal was investigated. Additionally, the role of an organic cosolvent was investigated to determine whether the aqueous medium is a limiting factor in efficiency. A pH range of 5-9 was tested with 1:1 v:v DMSO:H2O at 50° C. stirring at 1,000 rpm for 24 hours. The reaction mixtures were centrifuged, and the supernatant was decanted and filtered. The beads were washed and centrifuged in triplicate and the supernatants were freeze dried and digested for ICP-MS analysis, data summarized below in Table 1.
A multivariate approach was designed to establish the interaction between various levels of cosolvent volume, reaction time and temperature. The volume of DMSO was lowered with the hope of identifying other contributing factors that would lead to an enhanced outcome using a minimal amount of organic cosolvent. Additionally, the temperature ranged from 25° C. to 50° C. and the reaction time was assessed over 0.5 hours and 24 hours, and at pH 7. The scale of the beads and GdDO3A-DBCO monoamide chelate remained the same as previous trials at a 100 mg scale with 0.5 equivalents of GBCA while mixing at 1,000 rpm. The beads were centrifuged, washed, and digested in nitric acid for ICP-MS analysis using the methods described previously, results summarized below in Table 2.
Following the suboptimal results from previous trials with a smaller volume of DMSO cosolvent, the range of added cosolvent was increased to 50% v:v. Additionally, a simulated urine matrix, Surine™, was added to test if there were any significant effects from any urine constituents on the reaction efficiency. The experiments were run with variable reaction times, matrix and percentage DMSO at pH 7 and 37° C.

Where [6] appears, read: fitted, Lipari-Szabo approach, pH 6.8.

With `[Gd+3].[N-]=[N+]=NCCCNC(=O)CN1CCN(CC(=O)[O-])CCN(CC(=O)[O-])CCN(CC(=O)[O-])CC1` [GdDO3A-azido monoamide], in data set [1], the “τM, water residence lifetime” value was determined as 545 ns; the AO/h was −3.2 10^6 rad s^−1; the “Δ HM” value came to 11 kcal/mol. Moreover, in data set [2], the “^22r1 (298K), relaxivity” value amounted to 4.7 mM⁻¹ s⁻¹; the EV is reported as 1.0^a kJ mol^−1; the “^298D” value was 2.24; the a was 4.0^a Å. Further, in data set [2], the q is listed as 1^a and the r is recorded as 3.0^a Å. For the same molecule, in data set [2] (fitted), the ER was determined as 4.28 kcal/mol; the “Δ^2” value was 5.7 10^19 s^−2; the “τRG, global rotational correlation time constant” value is listed as 70 ps; the τV is listed as 8.4 ps. In addition, in data set [3] (Entry 1: 0.5 hr, Water, 0% DMSO), the “Gd Remaining (%)” value was 39%. Further, in data set [3] (Entry 2: 0.5 hr, Water, 50% DMSO), the “Gd Remaining (%)” value came to 36%. In addition, the “Gd Remaining (%)” value in data set [3] (Entry 3: 8 hr, Water, 0% DMSO) turned out to be 40%. For the same molecule, the “Gd Remaining (%)” value in data set [3] (Entry 4: 8 hr, Water, 50% DMSO) was 35%. In addition, the “Gd Remaining (%)” value in data set [3] (Entry 5: 0.5 hr, Surine, 0% DMSO) was 27%. Further, the “Gd Remaining (%)” value in data set [3] (Entry 6: 0.5 hr, Surine, 50% DMSO) came out at 37%. Moreover, the “Gd Remaining (%)” value in data set [3] (Entry 7: 8 hr, Surine, 0% DMSO) is on record as 39%. In addition, the “Gd Remaining (%)” value in data set [3] (Entry 8: 8 hr, Surine, 50% DMSO) was found to be 38%.
As to `O=C([O-])CN1CCN(CC(=O)[O-])CCN(CC(=O)O)CCN(CC(=O)[O-])CC1.[Gd+3]` [GdDOTA], the relaxivity in data set [4] is 4.5 mM⁻¹ s⁻¹.
On to `O=C([O-])CN1CCN(CC(=O)[O-])CCN(CC(=O)NCCC(=O)N2Cc3ccccc3C#Cc3ccccc32)CCN(CC(=O)[O-])CC1.[Gd+3]` [GdDO3A-DBCO monoamide], for which the “Gd Remaining (%)” value in data set [5] (Entry 1: 0.5 hr, Water, 0% DMSO, pH 7, 37° C.) came out at 27%; in data set [5] (Entry 1: cosolvent 0 μL, 25 °C, 0.5 hr, pH 7), 71%; in data set [5] (Entry 2: 0.5 hr, Water, 50% DMSO, pH 7, 37° C.) it was 28%; in data set [5] (Entry 2: cosolvent 0 μL, 25 °C, 24 hr, pH 7) it was 70%; in data set [5] (Entry 3: 8 hr, Water, 0% DMSO, pH 7, 37° C.), 27%; in data set [5] (Entry 3: cosolvent 100 μL, 25 °C, 0.5 hr, pH 7) it was 68%. Further, the “Gd Remaining (%)” value stood at 18% in data set [5] (Entry 4: 8 hr, Water, 50% DMSO, pH 7, 37° C.); 69% in data set [5] (Entry 4: cosolvent 100 μL, 25 °C, 24 hr, pH 7); 28% in data set [5] (Entry 5: 0.5 hr, Surine, 0% DMSO, pH 7, 37° C.); 67% in data set [5] (Entry 5: cosolvent 0 μL, 50 °C, 0.5 hr, pH 7); 29% in data set [5] (Entry 6: 0.5 hr, Surine, 50% DMSO, pH 7, 37° C.); 65% in data set [5] (Entry 6: cosolvent 0 μL, 50 °C, 24 hr, pH 7). Moreover, the “Gd Remaining (%)” value in data set [5] (Entry 7: 8 hr, Surine, 0% DMSO, pH 7, 37° C.) is given as 30%; in data set [5] (Entry 7: cosolvent 100 μL, 50 °C, 0.5 hr, pH 7), 69%; in data set [5] (Entry 8: 8 hr, Surine, 50% DMSO, pH 7, 37° C.), 20%; in data set [5] (Entry 8: cosolvent 100 μL, 50 °C, 24 hr, pH 7) it was 67%. The “second order rate constant of interception reaction” value in data set [5] (extrapolated from integrated second order rate law, FIG. 14) was 48.4 M⁻¹ s⁻¹. In addition, the “% Gd Remaining” value was found to be 1.64% in data set [5] (pH 5, 1:1 v:v DMSO:H2O); 2% in data set [5] (pH 7, 1:1 v:v DMSO:H2O); 1.6% in data set [5] (pH 9, 1:1 v:v DMSO:H2O). In addition, the “τM, water residence lifetime” value in data set [1] is 545 ns. The AO/h in data set [1] is listed as −3.0 10^6 rad s^−1. Further, the “Δ HM” value in data set [1] was 11 kcal/mol. In addition, the “inflection point of 17O R2p curve” value in data set [1] (pH 6.8, Gd^3+ 6.5 mM) is “about 310 K”. Further, the “temperature below which precipitation was observed” value in data set [1] (pH 6.8, Gd^3+ 6.5 mM) was “below 295 K”. The “^22r1 (298K), relaxivity” value in data set [2] stood at 7.1 mM⁻¹ s⁻¹. The “aggregate rotates more slowly than the discrete chelate (global vs local rotation), fold” value in data set [2] (Lipari-Szabo fitting) was “over 3 ×”. The “S^□” value in data set [2] (setting [6]) is 0.36. Further, the “τRL, local rotational correlation time constant” value in data set [2] (setting [6]) is on record as 107 ps. In addition, the ER in data set [2] (fitted) was determined as 4.78 kcal/mol. Besides, the “Δ^2” value in data set [2] (fitted) is 3.5 10^19 s^−2. Besides, the “τRG, global rotational correlation time constant” value in data set [2] (fitted) came out at 375 ps. In data set [2] (fitted), the τV was 13 ps. Also, the EV in data set [2] is 1.0^a kJ mol^−1. Besides, the “^298D” value in data set [2] is on record as 2.24. Also, in data set [2], the a was 4.0^a Å. In addition, the q in data set [2] is given as 1^a. The r in data set [2] was 3.0^a Å.
